The nature of data set [1]: Saturation vapour pressure of C5K at minimum service temperatures. Type of data set: physicochemical. The following applies: for PC5K pressure equivalent at 20° C. to the saturation vapour pressure: formula (II). On the procedure: Table I below indicates the saturation vapour pressures, noted PVSC5K, which C5K has at the temperatures of 0, −5, −10, −15, −20, −25, −30, −35 and −40° C., which are the minimum service temperatures typically found for medium- and high-voltage electrical devices.
It also indicates the pressure values, noted PC5K, which correspond at 20° C. to these saturation vapour pressures, and which are obtained by applying formula (II) above.

For data set [2] the following is noted: humans and animals; cited from earlier work.

We go through two compounds from patent US20140190726A1, “MIXTURE OF DECAFLUORO-2-METHYLBUTAN-3-ONE AND A CARRIER GAS AS A MEDIUM FOR ELECTRICAL INSULATION AND/OR FOR ELECTRIC ARC EXTINCTION IN MEDIUM-VOLTAGE” (SCHNEIDER ELECTRIC INDUSTRIES SAS, priority 2011, published 2014).

Structures are written as SMILES.

Consider `O=C(C(F)(F)F)C(F)(C(F)(F)F)C(F)(F)F` [C5K, decafluoro-2-methylbutan-3-one], for which the “PVSC5K saturation vapour pressure” value in data set [1] (0° C.) is 41.3 kPa; in data set [1] (−5° C.) it was 33.6 kPa; in data set [1] (−10° C.), 27.1 kPa; in data set [1] (−15° C.), 21.7 kPa; in data set [1] (−20° C.), 17.3 kPa; in data set [1] (−25° C.), 13.6 kPa. The “PVSC5K saturation vapour pressure” value in data set [1] (−30° C.) was found to be 10.6 kPa; in data set [1] (−35° C.), 8.1 kPa; in data set [1] (−40° C.), 6.2 kPa. Further, the “PC5K pressure equivalent at 20° C. to the saturation vapour pressure” value in data set [1] (0° C.) came to 44.3 kPa; in data set [1] (−5° C.) it was 36.7 kPa; in data set [1] (−10° C.) it was 30.2 kPa; in data set [1] (−15° C.), 24.7 kPa; in data set [1] (−20° C.), 20.0 kPa; in data set [1] (−25° C.), 16.0 kPa. In addition, the “PC5K pressure equivalent at 20° C. to the saturation vapour pressure” value in data set [1] (−30° C.) is listed as 12.7 kPa; in data set [1] (−35° C.), 10.0 kPa; in data set [1] (−40° C.), 7.8 kPa.

For `FS(F)(F)(F)(F)F` [SF6, sulphur hexafluoride], the Toxicity result in data set [2] was “non-toxic for humans and animals”.
